A short description of data set [1]: in vitro. Details: dose or concentration left out as unconfirmed. The conditions noted are these: mouse, liver microsomes. (In general: Liver microsomes are a subcellular fraction often used to study metabolism.)
Data set [2] is described as follows: in vitro. Details: dose or concentration left out as unconfirmed. As to conditions: human, liver microsomes.

Data on one compound can be found in ChEMBL document CHEMBL5576147, “Development of Brain Penetrant Pyridazine Pantothenate Kinase Activators” (J Med Chem, 2024).

In general, CLint scaled refers to the capacity of the preparation to metabolise the compound, expressed as a volume cleared per time. For `CC(C)c1ccc(CC(=O)N2CCN(c3ccc(C#N)nn3)CC2)cc1`, the CLint scaled at 4 h stood at 408 mL/min/kg in “in vitro [1]” and 175 mL/min/kg in the data set “in vitro [2]”.
